The record followed here is paper PMC7321408, “One-Pot Multicomponent Synthesis and Bioevaluation of Tetrahydroquinoline Derivatives as Potential Antioxidants, α-Amylase Enzyme Inhibitors, Anti-Cancerous and Anti-Inflammatory Agents” (Molecules, 2020).

Structures are written as SMILES. Converted amounts (≈) assume the structure as drawn. Read-outs that look alike come from different tables or passages of the source.

Data set [1] relates to carrageenan-induced paw edema. Description: Carrageenan-induced paw edema (in vivo anti-inflammatory activity). On the set-up: species or system BALB/C albino mice; unit not given beside the values. The conditions noted are these: 10 mg/kg, mice, n = 5. The protocol:
At 7–8 weeks old, male BALB/C albino mice (29–35 g), were purchased from The National Institute of Health (NIH), Islamabad, Pakistan. Five animals were housed per group and placed in a controlled temperature and humidity-controlled room (22 °C and 66 ± 5%, respectively) in a 12 h light–dark cycle and provided with water and food ad libitum. Ethical approval was taken from the bio-ethical committee of Quaid-I-Azam University (Approval No. BEC-FBS-QAU2018-119) and all protocols were conducted following the Ethical Guide to the Code of Practice for the Housing and Care of Animals Act 1986 (ARRIVE (Animal Research: Reporting In Vivo Experiments) guidelines). The anti-inflammatory activity of the synthesized compounds was evaluated by using the carrageenan-induced rat paw edema assay. To determine the dose response of tetrahydroquinoline derivatives, animals were first given a dose of 0.1, 1 and 10 mg/kg against 100 µL carrageenan (1% solution in normal saline)/paw. Treatment was given 60 min before carrageenan injection. Readings were taken at 4 h post carrageenan injection. The in vivo anti-inflammatory activity was performed following the procedure described by Koksal, et al. in 2017. Paw edema was induced by injecting 100 µL of 1% sterile carrageenan solution into the right hind paw of mice. Synthesized compounds (10 mg/kg), vehicle (saline with 2% DMSO) and drug (acetylsalicylic acid, ASA 10 mg/kg) were administered to the mice orally by gastric intubation 60 min before injecting carrageenan into the right hind paw. The decrease in edema was measured by vernier calipers every 2 h.

Data set [2] is described as follows: DPPH free radical scavenging assay. Conditions: mean ± SEM, n = 3; for IC50 (DPPH radical scavenging): concentration to scavenge 50% of the DPPH radicals. The protocol:
The % free radical scavenging activity (%FRSA) of the synthetic compounds was evaluated by the discoloration of an unstable DPPH reagent to the stable yellow-colored 2,2-diphenyl-1-picrylhydrazine molecule by accepting one electron from a donor antioxidant; the mechanism is shown in Scheme 2.
The % FRSA (free radical scavenging activity) of the synthetic compounds was determined by using the method of Tai et al. with slight modifications. The antioxidant potential was determined by detecting the capacity of the synthetic compounds to quench the DPPH free radicals. The synthetic compounds were taken in a 96-well plate at three-fold concentrations of 200 µg/mL, 66.6 µg/mL, 22.2 µg/mL and 7.4 µg/mL. DPPH free radicals were added to entire wells to make up the volume up to 200 µL. DMSO and ascorbic acid were taken as negative and positive controls, respectively. The absorbance was taken at 630nm using a microplate reader (ELx800 BioTek). The percentage of scavenging activity was calculated by the given formula:% scavenging activity = (1 − Abs/Abc) × 100
Abs = sample’s absorbance; Abc = control’s absorbance.

Another data set has as its system Hep-2C cells. Description: MTT assay against Hep-2C cells. The data set is classed as cell-based, Human. The conditions noted are these: read-out: IC50 (Mean ± SEM) Hep-2C Cells. The protocol: Hep-2C cell line experiments were performed in the Immunology Lab of the National Institute of Health (NIH), Islamabad, Pakistan. Human cervix carcinoma cells Hep-2C (ATCC HB-8065) were cultured in Dulbecco’s modified Eagle’s medium (DMEM), comprising 10% fetal calf serum (10% FCS) and supplemented with 2 mM L-glutamine, 100 U/mL penicillin, 100 µg/mL streptomycin and 1 mM Na pyruvate, at 37 °C in a humidified 5% CO2 incubator.
The tetrazolium dye 3-(4, 5-dimethyl thiazolyl-2)-2, 5-diphenyltetrazolium bromide (MTT) was used to assess the cytotoxic potential of the test compounds. In living cells, MTT is reduced into its insoluble purple product formazan, which is measured spectrophotometrically.
Hep-2C cells, in a density of 1 × 10^6 (> 90% cell viability), were cultured in a 96-well plate and treated with different concentrations of the test compounds for 24, 48 and 72 h. Ten microliters of MTT (1 mg per mL) were added per well followed by incubation for 4 h. Insoluble formazan crystals were dissolved by adding 100 µL of DMSO. Cells were then incubated for another 2 h. Absorbance was measured at 570 nm by a microplate reader. Untreated Hep-2C cells were taken as controls and DMSO as a negative. % cell viability = (abssample − absblank)/(abscontrol − absblank) × 100
(Tetrazolium dyes change colour on reduction, which living cells bring about.)

A further data set has as its system brine shrimp nauplii. Description: Brine shrimp lethality bioassay. The conditions noted are these: 24 h, n = 3. Format: in vivo. The protocol:
Brine shrimp eggs were hatched in a shallow rectangular plastic dish and filled with artificial seawater, which was prepared with a commercial salt mixture. In a 96-well plate, 150 µL of artificial seawater was added and 10 nauplii were added into this. Test compounds (400, 200, 100 and 50 µg/mL) were added into each well and the final volume was made up by adding the artificial seawater. The well plate was left uncovered under a lamp. The number of surviving shrimps were counted and recorded after 24 h. The test was repeated in triplicate. […] The percentage mortality (%M) was also calculated by dividing the number of dead nauplii by the total number and then multiplied by 100.

Data set [3] in a line: MTT cytotoxicity against raw macrophages. The data set is classed as cell-based, albino rats. Conditions: albino, rat; for viability at 24 h, 1 µM / viability at 24 h, 10 µM / viability at 24 h, 50 µM / viability at 24 h, 100 µM: peritoneal macrophages (raw macrophages), raw macrophages, MTT, read-out: % Cell Viability; for IC50 at 24 h: primary peritoneal macrophages, mean ± SEM, n = 3. The protocol:
The % cell viability of the synthetic library was evaluated in vitro by measuring the mitochondrial dehydrogenase activity (MTT test) on raw macrophages.
The cytotoxic potential was assessed by using an MTT 3-(4,5-dimethyl thiazole-2-yl)-2,5- diphenyl tetrazolium bromide assay. Briefly, macrophages were extracted from the peritoneal cavity of albino rats and plated at a density of 1 × 10^6 per well in a 96-well plate and incubated in a 5% CO2 incubator at 37 °C for 24 h. The cells were treated with various concentrations of the test compounds (100 µM, 50 µM, 10 µM and 1 µM) or vehicle alone. The test compounds were first dissolved in DMSO to make a 100 mM stock solution and then further dilutions were made from this stock solution. After 24 h of incubation, 20 µL of MTT (1 mg/mL in normal saline) was added into each well and incubated under the same conditions for 2 h. Mitochondrial succinate dehydrogenase converted MTT in live cells into purple formazan crystals. The formazan crystals were then solubilized in 100 µL DMSO, and the absorbance was measured at 570 nm. The % cell viability was calculated by the following formula; % cell viability = (abssample − absblank)/(abscontrol − absblank) × 100

Data set [4] concerns NO generated by LPS-induced macrophages. Description: Nitric oxide assay (Griess) in LPS-induced macrophages. The data set is classed as cell-based, murine. Conditions: Mus musculus, Macrophage, 18 h, LPS 1 µg/mL, read-out: % NO Production (Mean ± SEM). The protocol: A Griess reagent, a spectrophotometric determination of nitrite level, was carried out to measure the nitrite level in the conditioned medium of macrophages treated with lipopolysaccharide (LPS). Sodium nitrite (NaNO2) was used as a standard compound for the standard curve (Figure 8). The NO concentrations were obtained using the standard curve equation: y = 0.0083x + 0.0017, R^2 = 0.9999, where y is the absorbance at 540 nm and x is the NO concentration in µM. The inhibitory activity of the tested compounds towards NO generated by LPS-induced macrophages was obtained from the calculated value of x.
The anti-inflammatory effect of the synthesized compounds in murine macrophages was evaluated by using the Griess reaction method, described previously. In brief, 1 × 10^6 were plated in a 96-well plate and incubated in a 5% CO2 incubator at 37 °C for 24 h, pre-treated with different concentrations (100 µM, 50 µM, 10 µM and 1 µM) of synthetic compounds for another 2 h and challenged with LPS (1 µg/mL) for an additional 18 h. Equal volumes of Griess reagent (1% sulphanilamide in 50% phosphoric acid and 0.1% naphthyl ethylenediamine dihydrochloride in distilled water and vortexed) and culture medium were mixed and the absorbance was taken at 540 nm. Lipopolysaccharide (LPS) was taken as a blank and piroxicam was taken as a positive control. A t-test was applied to determine the significance of the results.

By IC50 is commonly meant the concentration that inhibits the measured activity by half. For orientation: viability means the share of living cells, or the viability signal relative to a control.

As for `CC(=O)Oc1ccccc1C(=O)O` [Acetyl salicylic acid, reference compound], the Paw thickness in data set [1] (0 h after carrageenan injection) is listed as 2.14 ± 0.08; in data set [1] (2 h after carrageenan injection) it was 2.26 ± 0.05; in data set [1] (4 h after carrageenan injection), 2.32 ± 0.04; in data set [1] (6 h after carrageenan injection) it was 2.39 ± 0.02.
Turning to `O=C1O[C@H]([C@@H](O)CO)C(O)=C1O` [Ascorbic Acid, reference compound], the “% DPPH Scavenging Activity” value worked out at 31.35 ± 0.23% in data set [2] (7.4 µg/mL), 52.12 ± 0.31% in data set [2] (22.22 µg/mL), 76.63 ± 0.19% in data set [2] (66.66 µg/mL) and 89.01 ± 0.18% in data set [2] (200 µg/mL). For the same compound, the “IC50 (DPPH radical scavenging)” value in data set [2] is 41.38 ± 0.34 µg/mL (≈ 235 µM).
For `N.N.[Cl][Pt][Cl]` [Cisplatin, reference compound], the IC50 with Hep-2C cells (24 h) turned out to be 19.1 ± 1.06 µM; in the data set on Hep-2C cells (48 h), 17.5 ± 1.07 µM; with Hep-2C cells (72 h, listed as cisplatin), 14.6 ± 1.01 µM; with Hep-2C cells (72 h), 14.6 ± 1.01 µM.
Take `COc1cccc2c1C(=O)c1c(O)c3c(c(O)c1C2=O)C[C@@](O)(C(=O)CO)C[C@@H]3O[C@H]1C[C@H](N)[C@H](O)[C@H](C)O1` [Doxorubicin, reference compound]: the “LD50 ± SEM (brine shrimp lethality)” value in the data set with brine shrimp nauplii came out at 124 ± 1.54 µg/mL. In data set [3], the viability at 24 h, 1 µM amounted to 51 ± 1.34%; the viability at 24 h, 10 µM is 40 ± 0.87%; the viability at 24 h, 50 µM was determined as 33 ± 1.01%; the viability at 24 h, 100 µM is 17 ± 0.83%. In data set [3], the IC50 at 24 h came to 17.1 ± 0.37 µM.
As to `CN1C(C(=O)Nc2ccccn2)=C(O)c2ccccc2S1(=O)=O` [Piroxicam, reference compound], in data set [4], the activity at 1 µM was 25.4 ± 0.45%, the activity at 10 µM worked out at 20.7 ± 0.24%, the activity at 50 µM was 16.5 ± 0.41% and the activity at 100 µM came to 13.4 ± 0.54%.
For `O=c1c(O)c(-c2ccc(O)c(O)c2)oc2cc(O)cc(O)c12` [Quercetin, reference compound], the “% DPPH Scavenging Activity” value worked out at 42.34 ± 0.36% in data set [2] (7.4 µg/mL), 58.31 ± 0.28% in data set [2] (22.22 µg/mL), 69.81 ± 0.17% in data set [2] (66.66 µg/mL) and 81.43 ± 0.21% in data set [2] (200 µg/mL). Also, in data set [2], the “IC50 (DPPH radical scavenging)” value is 41.64 ± 1.01 µg/mL (≈ 138 µM).
In the case of `c1ccc2c(c1)CCCN2CN1CCNCC1` [SF6, 1-(Piperazine-1-ylmethyl)-1,2,3,4-tetrahydroquinoline], the “% DPPH Scavenging Activity” value in data set [2] (7.4 µg/mL) is 8.81 ± 0.21%. The “% DPPH Scavenging Activity” value in data set [2] (22.22 µg/mL) is 37.75 ± 0.31%. For the same compound, the “% DPPH Scavenging Activity” value in data set [2] (66.66 µg/mL) came to 50.32 ± 0.18%. In data set [2] (200 µg/mL), the “% DPPH Scavenging Activity” value is recorded as 66.61 ± 0.13%. Besides, in data set [2], the “IC50 (DPPH radical scavenging)” value stood at 35.89 ± 0.33 µg/mL (≈ 155 µM). Further, the “LD50 ± SEM (brine shrimp lethality)” value with brine shrimp nauplii is 121.2 ± 1.09 µg/mL. Moreover, in data set [3], the viability at 24 h, 1 µM came to 91 ± 0.99%; the viability at 24 h, 10 µM worked out at 87 ± 0.82%; the viability at 24 h, 50 µM was determined as 65 ± 0.76%; the viability at 24 h, 100 µM was determined as 60 ± 1.21%. For the same compound, the IC50 at 24 h in data set [3] amounted to 23.37 ± 0.17 µM. In data set [4], the activity at 1 µM was found to be 77.3 ± 0.62%, the activity at 10 µM came out at 72.33 ± 0.59%, the activity at 50 µM came to 61.11 ± 0.54% and the activity at 100 µM was found to be 52.44 ± 0.49%.
As for `CCN(CC)CN1CCCc2ccccc21` [SF11, N-((3,4-dihydroquinolin-1(2H)-yl)methyl)-N-ethylethanamine], in data set [2] (7.4 µg/mL), the “% DPPH Scavenging Activity” value amounted to 7.76 ± 0.18%. Moreover, the “% DPPH Scavenging Activity” value in data set [2] (22.22 µg/mL) came out at 15.54 ± 0.09%. The “% DPPH Scavenging Activity” value in data set [2] (66.66 µg/mL) is given as 30.9 ± 0.12%. In data set [2] (200 µg/mL), the “% DPPH Scavenging Activity” value came out at 43.93 ± 0.28%. Besides, the “IC50 (DPPH radical scavenging)” value in data set [2] was 53.63 ± 0.13 µg/mL (≈ 246 µM). In addition, the “LD50 ± SEM (brine shrimp lethality)” value in the data set with brine shrimp nauplii was 200 ± 2.11 µg/mL. In data set [3], the viability at 24 h, 1 µM was determined as 95 ± 0.91%; the viability at 24 h, 10 µM came to 82 ± 0.84%; the viability at 24 h, 50 µM worked out at 62 ± 1.2%; the viability at 24 h, 100 µM stood at 41 ± 0.83%. Further, the half-inhibitory concentration (IC50) at 24 h in data set [3] came to 26.4 ± 0.31 µM. Besides, in data set [4], the activity at 1 µM came out at 43 ± 0.66%, the activity at 10 µM amounted to 39.8 ± 0.61%, the activity at 50 µM was found to be 33.7 ± 0.53% and the activity at 100 µM came out at 25.7 ± 0.44%.
